Experimental data as given in patent US10144732B2 (BIOGEN MA INC., priority 2014, dated 2018).
“And” between values parts separate entries of the source, which are not always exact repeats. Equal entries are not always repeated. Structures can show the parent of a compound that is named as a salt.

target: T1, Human ATX protein (Homo sapiens, UniProt Q13822); experiment: ATX biochemical assay (FRET, FS-3 substrate); conditions: FRET assay, FS-3 2 μM, ATX 1.0 μg/mL, 30 minutes preincubation, 2 hours reaction at room temperature; read-out: IC50
T1 construct: made in house
In short: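 FRET read-out: cleavage of FS-3 (2 μM final) unquenches fluorescein, measured at 485/538 nm after 2 h at room temperature. Before substrate addition, in-house-expressed human autotaxin (1.0 μg/mL) sat with compound for 30 min in pH 7.4 Tris/NaCl/KCl/CaCl2/MgCl2 buffer containing fatty acid free-BSA at 1 mg/mL.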

Row | SMILES | IC50
1 | O=C(C[C@H]1CC[C@@H](C(=O)O)CC1)N1CCc2c(C(F)(F)F)nn(Cc3ccc(Cl)cc3)c2C1 [Example 7-6, cis-4-(2-(1-(4-chlorobenzyl)-3-(trifluoromethyl)-4,5-dihydro-1H-pyrazolo[3,4-c]pyridin-6(7H)-yl)-2-oxoethyl)cyclohexanecarboxylic acid] | ≤ 100 nM
2 | O=C(C[C@H]1CC[C@H](C(=O)O)CC1)N1CCc2c(C(F)(F)F)nn(Cc3ccc(Cl)cc3Cl)c2C1 [Example 7-7, trans-4-(2-(1-(2,4-Dichlorobenzyl)-3-(trifluoromethyl)-4,5-dihydro-1H-pyrazolo[3,4-c]pyridin-6(7H)-yl)-2-oxoethyl)cyclohexanecarboxylic acid] | ≤ 100 nM
3 | O=C(C[C@H]1CC[C@@H](C(=O)O)CC1)N1CCc2c(C(F)(F)F)nn(Cc3ccc(Cl)cc3Cl)c2C1 [Example 7-8, cis-4-(2-(1-(2,4-dichlorobenzyl)-3-(trifluoromethyl)-4,5-dihydro-1H-pyrazolo[3,4-c]pyridin-6(7H)-yl)-2-oxoethyl)cyclohexanecarboxylic acid] | ≤ 100 nM
4 | O=C(O[C@H]1CC[C@@H](C(=O)O)CC1)N1CCc2c(C(F)(F)F)nn(Cc3ccc(Cl)cc3F)c2C1 [Example 7-9, cis-4-((1-(4-Chloro-2-fluorobenzyl)-3-(trifluoromethyl)-4,5,6,7-tetrahydro-1H-pyrazolo[3,4-c]pyridine-6-carbonyl)oxy)cyclohexanecarboxylic acid] | ≤ 100 nM
5 | O=C(O[C@H]1CC[C@H](C(=O)O)CC1)N1CCc2c(C(F)(F)F)nn(Cc3ccc(Cl)cc3F)c2C1 [Example 7-10, trans-4-((1-(4-chloro-2-fluorobenzyl)-3-(trifluoromethyl)-4,5,6,7-tetrahydro-1H-pyrazolo[3,4-c]pyridine-6-carbonyl)oxy)cyclohexanecarboxylic acid] | ≤ 100 nM
6 | O=C(C[C@H]1CC[C@H](C(=O)O)CC1)N1CCc2c(C(F)(F)F)nn(Cc3ccccc3)c2C1 [Example 7-11, trans-4-(2-(1-Benzyl-3-(trifluoromethyl)-4,5-dihydro-1H-pyrazolo[3,4-c]pyridin-6(7H)-yl)-2-oxoethyl)cyclohexanecarboxylic acid] | ≤ 100 nM
7 | O=C(C[C@H]1CC[C@@H](C(=O)O)CC1)N1CCc2c(C(F)(F)F)nn(Cc3ccccc3)c2C1 [Example 7-12, cis-4-(2-(1-benzyl-3-(trifluoromethyl)-4,5-dihydro-1H-pyrazolo[3,4-c]pyridin-6(7H)-yl)-2-oxoethyl)cyclohexanecarboxylic acid] | ≤ 100 nM
8 | O=C(O)[C@H]1CC[C@H](C(=O)N2CCc3c(C(F)(F)F)nn(Cc4ccc(F)cc4)c3C2)CC1 [Example 7-17, trans-4-(1-(4-Fluorobenzyl)-3-(trifluoromethyl)-4,5,6,7-tetrahydro-1H-pyrazolo[3,4-c]pyridine-6-carbonyl)cyclohexanecarboxylic acid] | ≤ 100 nM
9 | O=C(O)[C@H]1CC[C@@H](C(=O)N2CCc3c(C(F)(F)F)nn(Cc4ccc(F)cc4)c3C2)CC1 [Example 7-18, cis-4-(1-(4-fluorobenzyl)-3-(trifluoromethyl)-4,5,6,7-tetrahydro-1H-pyrazolo[3,4-c]pyridine-6-carbonyl)cyclohexanecarboxylic acid] | ≤ 100 nM
10 | O=C(C[C@H]1CC[C@H](C(=O)O)CC1)N1CCc2c(C(F)(F)F)nn(C3CCCCC3)c2C1 [Example 7-19, trans-4-(2-(1-cyclohexyl-3-(trifluoromethyl)-4,5-dihydro-1H-pyrazolo[3,4-c]pyridin-6(7H)-yl)-2-oxoethyl)cyclohexanecarboxylic acid] | > 500 nM and ≤ 10000 nM
11 | O=C(C[C@H]1CC[C@@H](C(=O)O)CC1)N1CCc2c(C(F)(F)F)nn(C3CCCCC3)c2C1 [Example 7-20, cis-4-(2-(1-cyclohexyl-3-(trifluoromethyl)-4,5-dihydro-1H-pyrazolo[3,4-c]pyridin-6(7H)-yl)-2-oxoethyl)cyclohexanecarboxylic acid] | > 500 nM and ≤ 10000 nM
12 | O=C(C[C@H]1CC[C@@H](C(=O)O)CC1)N1CCc2c(C(F)(F)F)nn(CCC3CCCCC3)c2C1 [Example 7-21, cis-4-(2-(1-(2-Cyclohexylethyl)-3-(trifluoromethyl)-4,5-dihydro-1H-pyrazolo[3,4-c]pyridin-6(7H)-yl)-2-oxoethyl)cyclohexanecarboxylic acid] | ≤ 100 nM
13 | O=C(C[C@H]1CC[C@H](C(=O)O)CC1)N1CCc2c(C(F)(F)F)nn(CCC3CCCCC3)c2C1 [Example 7-22, trans-4-(2-(1-(2-cyclohexylethyl)-3-(trifluoromethyl)-4,5-dihydro-1H-pyrazolo[3,4-c]pyridin-6(7H)-yl)-2-oxoethyl)cyclohexanecarboxylic acid] | ≤ 100 nM
14 | C[C@]1(C(=O)O)C[C@@H](CC(=O)N2CCc3c(C(F)(F)F)nn(Cc4ccc(F)cc4)c3C2)C1 [Example 7-23, cis-3-(2-(1-(4-Fluorobenzyl)-3-(trifluoromethyl)-4,5-dihydro-1H-pyrazolo[3,4-c]pyridin-6(7H)-yl)-2-oxoethyl)-1-methylcyclobutanecarboxylic acid] | ≤ 100 nM
15 | C[C@]1(C(=O)O)CC[C@@H](CC(=O)N2CCc3c(C(F)(F)F)nn(Cc4ccc(F)cc4)c3C2)CC1 [Example 7-25, cis-4-(2-(1-(4-fluorobenzyl)-3-(trifluoromethyl)-4,5-dihydro-1H-pyrazolo[3,4-c]pyridin-6(7H)-yl)-2-oxoethyl)-1-methylcyclohexanecarboxylic acid] | ≤ 100 nM
16 | CC(C)(C)OC(=O)N1CCC(CC(=O)N2CCc3c(C(F)(F)F)nn(Cc4ccc(Cl)cc4F)c3C2)CC1 [Example 8-2, tert-Butyl 4-(2-(1-(4-chloro-2-fluorobenzyl)-3-(trifluoromethyl)-4,5-dihydro-1H-pyrazolo[3,4-c]pyridin-6(7H)-yl)-2-oxoethyl)piperidine-1-carboxylate] | ≤ 100 nM
17 | CC(C)(C)OC(=O)N1CC(CC(=O)N2CCc3c(C(F)(F)F)nn(Cc4ccc(Cl)cc4F)c3C2)C1 [Example 8-3, tert-Butyl 3-(2-(1-(4-chloro-2-fluorobenzyl)-3-(trifluoromethyl)-4,5-dihydro-1H-pyrazolo[3,4-c]pyridin-6(7H)-yl)-2-oxoethyl)azetidine-1-carboxylate] | ≤ 100 nM
18 | CC(C)(C)OC(=O)N1CCCC(CC(=O)N2CCc3c(C(F)(F)F)nn(Cc4ccc(F)cc4)c3C2)C1 (stereo not drawn) [Example 8-4, tert-Butyl 3-(2-(1-(4-fluorobenzyl)-3-(trifluoromethyl)-4,5-dihydro-1H-pyrazolo[3,4-c]pyridin-6(7H)-yl)-2-oxoethyl)piperidine-1-carboxylate] | ≤ 100 nM
19 | CC1CC(CC(=O)N2CCc3c(C(F)(F)F)nn(Cc4ccc(Cl)cc4F)c3C2)CCN1C(=O)OC(C)(C)C (stereo not drawn) [Example 8-5, tert-Butyl 4-(2-(1-(4-chloro-2-fluorobenzyl)-3-(trifluoromethyl)-4,5-dihydro-1H-pyrazolo[3,4-c]pyridin-6(7H)-yl)-2-oxoethyl)-2-methylpiperidine-1-carboxylate] | ≤ 100 nM
20 | CC(C)(C)OC(=O)N1CCC(CC(=O)N2CCc3c(C(F)(F)F)nn(Cc4ccc(Cl)cc4F)c3C2)CC1(C)C (stereo not drawn) [Example 8-6, tert-Butyl 4-(2-(1-(4-chloro-2-fluorobenzyl)-3-(trifluoromethyl)-4,5-dihydro-1H-pyrazolo[3,4-c]pyridin-6(7H)-yl)-2-oxoethyl)-2,2-dimethylpiperidine-1-carboxylate] | ≤ 100 nM
21 | CC(C)(C)OC(=O)N1CCC(CC(=O)N2CCc3c(C(F)(F)F)nn(Cc4ccc(Cl)cc4F)c3C2)CC1C(F)(F)F (stereo not drawn) [Example 8-7, tert-Butyl 4-(2-(1-(4-chloro-2-fluorobenzyl)-3-(trifluoromethyl)-4,5-dihydro-1H-pyrazolo[3,4-c]pyridin-6(7H)-yl)-2-oxoethyl)-2-(trifluoromethyl)piperidine-1-carboxylate] | ≤ 100 nM
22 | CCC1CC(CC(=O)N2CCc3c(C(F)(F)F)nn(Cc4ccc(F)cc4)c3C2)CCN1C(=O)OC(C)(C)C (stereo not drawn) [Example 8-8, tert-Butyl 2-ethyl-4-(2-(1-(4-fluorobenzyl)-3-(trifluoromethyl)-4,5-dihydro-1H-pyrazolo[3,4-c]pyridin-6(7H)-yl)-2-oxoethyl)piperidine-1-carboxylate] | ≤ 100 nM
23 | CCCC1CC(CC(=O)N2CCc3c(C(F)(F)F)nn(Cc4ccc(F)cc4)c3C2)CCN1C(=O)OC(C)(C)C (stereo not drawn) [Example 8-9, tert-Butyl 4-(2-(1-(4-fluorobenzyl)-3-(trifluoromethyl)-4,5-dihydro-1H-pyrazolo[3,4-c]pyridin-6(7H)-yl)-2-oxoethyl)-2-propylpiperidine-1-carboxylate] | ≤ 100 nM
24 | CC(C)(C)OC(=O)NC12CCC(C(=O)N3CCc4c(C(F)(F)F)nn(Cc5ccc(F)cc5)c4C3)(CC1)CC2 [Example 8-10, tert-Butyl 4-(1-(4-fluorobenzyl)-3-(trifluoromethyl)-4,5,6,7-tetrahydro-1H-pyrazolo[3,4-c]pyridine-6-carbonyl)bicyclo[2.2.2]octan-1-ylcarbamate] | ≤ 100 nM
25 | O=C(CC1CNC1)N1CCc2c(C(F)(F)F)nn(Cc3ccc(Cl)cc3F)c2C1 [Example 9-3, 2-(Azetidin-3-yl)-1-(1-(4-chloro-2-fluorobenzyl)-3-(trifluoromethyl)-4,5-dihydro-1H-pyrazolo[3,4-c]pyridin-6(7H)-yl)ethanone TFA salt] | ≤ 100 nM

same assay, conditions: IC50, FRET assay, FS-3 2 μM, ATX 1.0 μg/mL, 30 minutes preincubation, 2 hours reaction at room temperature

Row | SMILES | IC50 [nM]
26 | CC(C)(C)OC(=O)N1C2CCC1CC(CC(=O)N1CCc3c(C(F)(F)F)nn(Cc4ccc(Cl)cc4F)c3C1)C2 (stereo not drawn) [Example 8-1, tert-Butyl 3-(2-(1-(4-chloro-2-fluorobenzyl)-3-(trifluoromethyl)-4,5-dihydro-1H-pyrazolo[3,4-c]pyridin-6(7H)-yl)-2-oxoethyl)-8-azabicyclo[3.2.1]octane-8-carboxylate] | ≤ 100
27 | O=C(CC1CC2CCC(C1)N2)N1CCc2c(C(F)(F)F)nn(Cc3ccc(Cl)cc3F)c2C1 (stereo not drawn) [Example 9-1, 2-(8-Aza-bicyclo[3.2.1]octan-3-yl)-1-(1-(4-chloro-2-fluorobenzyl)-3-(trifluoromethyl)-4,5-dihydro-1H-pyrazolo[3,4-c]pyridin-6(7H)-yl)ethanone TFA salt] | ≤ 100
